The values below come from BindingDB's records for doi:10.1021/jm00028a009 (Cambridge Neuroscience, 1994).

As usually defined, the IC50 is the concentration needed to halve the response being measured. Read a high IC50 as weaker potency in that assay.

Molecules are shown by their SMILES.

This assay concerns the target Sigma non-opioid intracellular receptor 1 (Cavia porcellus). Briefly: Tested in vitro for the concentration required to inhibit specific [3H]DTG radioligand binding to sigma receptor on guinea pig brain membrane.
Compound `CCc1cccc(N=C(N)Nc2cccc(CC)c2)c1` gave an IC50 of 8 nM.

Regarding `CC(C)c1ccc(N=C(N)Nc2ccc(C(C)C)cc2)cc1`, the half-inhibitory concentration (IC50) is 242 nM.

For the compound `NC(=Nc1ccc(Br)cc1)Nc1ccc(Br)cc1`, the concentration for half-maximal inhibition (IC50) turned out to be 33 nM.

Take `CC(C)c1cccc(N=C(N)Nc2cccc(C(C)C)c2)c1`: the IC50 came to 96 nM.

`NC(=Nc1cccc2ccccc12)Nc1cccc2ccccc12` showed an IC50 of 165 nM.

Regarding `N=C(N1CCc2ccccc21)N1CCc2ccccc21` [C-[Bis-(2,3-dihydro-indol-1-yl)]-methyleneamine], the IC50 turned out to be 7180 nM.

For `CN(C(N)=Nc1cccc(N)c1)c1cccc2ccccc12` [N'-(3-Amino-phenyl)-N-methyl-N-naphthalen-1-yl-guanidine], the IC50 was 13000 nM.

In the case of `CCc1cccc(N=C(N)N(C)c2cccc3ccccc23)c1` [N'-(3-Ethyl-phenyl)-N-methyl-N-naphthalen-1-yl-guanidine], the IC50 is 1000 nM. Against the preceding compound, the IC50 is about 13-fold lower.

Regarding `COc1cccc(N=C(N)Nc2cccc(OC)c2)c1` [N,N'-Bis-(3-methoxy-phenyl)-guanidine], the IC50 is 351 nM.

`NC(=Nc1cccc2c1CCC2)Nc1cccc2c1CCC2` [N,N'-Di-indan-4-yl-guanidine]: the half-maximal inhibitory concentration (IC50) worked out at 29 nM.

`NC(=Nc1cccc2ccccc12)N(c1ccccc1)c1cccc2ccccc12` [N,N'-Di-naphthalen-1-yl-N-phenyl-guanidine] yielded a half-maximal inhibitory concentration (IC50) of 7930 nM.

`NC(=Nc1ccc2ccccc2c1)Nc1ccc2ccccc2c1` [N,N'-Di-naphthalen-2-yl-guanidine] showed an IC50 of 92 nM.

In the case of `CN(C(=N)N(C)c1cccc2ccccc12)c1cccc2ccccc12` [N,N'-Dimethyl-N,N'-di-naphthalen-1-yl-guanidine], the IC50 was 10700 nM.

Consider `NC(=Nc1cccc2ccccc12)Nc1ccccc1I` [N-(2-Iodo-phenyl)-N'-naphthalen-1-yl-guanidine], for which the 50% inhibitory concentration (IC50) is 40 nM.

In the case of `CC(C)c1ccccc1N=C(N)Nc1cccc2ccccc12` [N-(2-Isopropyl-phenyl)-N'-naphthalen-1-yl-guanidine], the IC50 is 91 nM.

With `CN(C(N)=Nc1cccc2ccccc12)c1cccc(N)c1` [N-(3-Amino-phenyl)-N-methyl-N'-naphthalen-1-yl-guanidine], the half-maximal inhibitory concentration (IC50) is 2700 nM.

`CN(C(N)=Nc1cccc2ccccc12)c1cccc(N=[N+]=[N-])c1` [N-(3-Azido-phenyl)-N-methyl-N'-naphthalen-1-yl-guanidine] had an IC50 of 3020 nM.

For the compound `CCc1cccc(N=C(N)N2CCC(c3ccccc3)CC2)c1` [N-(3-Ethyl-phenyl)-4-phenyl-piperidine-1-carboxamidine], the concentration for half-maximal inhibition (IC50) is 60 nM. This IC50 is about 50-fold lower than that of the compound before.

On to `CCc1cccc(NC(N)=Nc2cccc3ccccc23)c1` [N-(3-Ethyl-phenyl)-N'-naphthalen-1-yl-guanidine], for which the IC50 was determined as 54 nM.

In turn, `CCc1cccc(N(C)C(=N)N(C)c2cccc3ccccc23)c1` [N-(3-Ethyl-phenyl)-N,N'-dimethyl-N'-naphthalen-1-yl-guanidine] returned an IC50 of 1210 nM.

Compound `CCN(C(N)=Nc1cccc2ccccc12)c1cccc2ccccc12` [N-Ethyl-N,N'-di-naphthalen-1-yl-guanidine] displayed a 50% inhibitory concentration (IC50) of 6130 nM.

`CCc1cccc(N(CC)C(N)=Nc2cccc3ccccc23)c1` [N-Ethyl-N-(3-ethyl-phenyl)-N'-naphthalen-1-yl-guanidine] had a concentration for half-maximal inhibition (IC50) of 2190 nM.

`CN(/C(N)=N/c1cccc2ccccc12)c1cccc([N+](=O)[O-])c1` [N-Methyl-N'-naphthalen-1-yl-N-(3-nitro-phenyl)-guanidine]: the half-inhibitory concentration (IC50) was 6260 nM. Compared with the last compound, the IC50 is about 2.9-fold higher.

The compound `CN(C(N)=Nc1cccc2ccccc12)c1ccccc1` [N-Methyl-N'-naphthalen-1-yl-N-phenyl-guanidine] gave an IC50 of 2900 nM.

The compound `Cc1cccc(N=C(N)N(C)c2cccc(C)c2)c1` [N-Methyl-N,N'-di-m-tolyl-guanidine] yielded a 50% inhibitory concentration (IC50) of 247 nM.

As to `CN(C(=N)N(c1ccccc1)c1cccc2ccccc12)c1cccc2ccccc12` [N-Methyl-N,N'-di-naphthalen-1-yl-N'-phenyl-guanidine], the concentration for half-maximal inhibition (IC50) came out at 11000 nM.

The compound `CN(C(N)=Nc1cccc2ccccc12)c1cccc2ccccc12` [N-Methyl-N,N'-di-naphthalen-1-yl-guanidine] gave a 50% inhibitory concentration (IC50) of 4800 nM.

`C/[N+](=C(/[NH-])Nc1cccc([N+](=O)[O-])c1)c1cccc2ccccc12` [N-Methyl-N-naphthalen-1-yl-N'-(3-nitro-phenyl)-guanidine]: the IC50 amounted to 2640 nM.

For `NC(=Nc1cccc2ccccc12)N1CCC(c2ccccc2)CC1` [N-Naphthalen-1-yl-4-phenyl-piperidine-1-carboxamidine], the IC50 came out at 343 nM. This IC50 is about 7.7-fold lower than that of the compound before.

As for `Cc1cccc(NC(N)=Nc2cccc3ccccc23)c1` [N-Naphthalen-1-yl-N'-m-tolyl-guanidine], the half-inhibitory concentration (IC50) stood at 75 nM. This IC50 lies about 4.6-fold lower than the previous one.

As for `NC(=Nc1cccc2ccccc12)N1CCCCCC1` [N-Naphthalen-1-yl-azepane-1-carboxamidine], the IC50 came out at 1410 nM.

For `NC(=Nc1cccc2ccccc12)N1CCCCC1` [N-Naphthalen-1-yl-piperidine-1-carboxamidine], the IC50 turned out to be 1070 nM.
